For this test, the target named is T1, KCC2 (Homo sapiens, UniProt Q9H2X9).
T1 construct: expressed in transfected cells; host or cells: HEK-293 (ATCC CRL-1573)
T1 sequence (Q9H2X9 1-1116 isoform Q9H2X9-2): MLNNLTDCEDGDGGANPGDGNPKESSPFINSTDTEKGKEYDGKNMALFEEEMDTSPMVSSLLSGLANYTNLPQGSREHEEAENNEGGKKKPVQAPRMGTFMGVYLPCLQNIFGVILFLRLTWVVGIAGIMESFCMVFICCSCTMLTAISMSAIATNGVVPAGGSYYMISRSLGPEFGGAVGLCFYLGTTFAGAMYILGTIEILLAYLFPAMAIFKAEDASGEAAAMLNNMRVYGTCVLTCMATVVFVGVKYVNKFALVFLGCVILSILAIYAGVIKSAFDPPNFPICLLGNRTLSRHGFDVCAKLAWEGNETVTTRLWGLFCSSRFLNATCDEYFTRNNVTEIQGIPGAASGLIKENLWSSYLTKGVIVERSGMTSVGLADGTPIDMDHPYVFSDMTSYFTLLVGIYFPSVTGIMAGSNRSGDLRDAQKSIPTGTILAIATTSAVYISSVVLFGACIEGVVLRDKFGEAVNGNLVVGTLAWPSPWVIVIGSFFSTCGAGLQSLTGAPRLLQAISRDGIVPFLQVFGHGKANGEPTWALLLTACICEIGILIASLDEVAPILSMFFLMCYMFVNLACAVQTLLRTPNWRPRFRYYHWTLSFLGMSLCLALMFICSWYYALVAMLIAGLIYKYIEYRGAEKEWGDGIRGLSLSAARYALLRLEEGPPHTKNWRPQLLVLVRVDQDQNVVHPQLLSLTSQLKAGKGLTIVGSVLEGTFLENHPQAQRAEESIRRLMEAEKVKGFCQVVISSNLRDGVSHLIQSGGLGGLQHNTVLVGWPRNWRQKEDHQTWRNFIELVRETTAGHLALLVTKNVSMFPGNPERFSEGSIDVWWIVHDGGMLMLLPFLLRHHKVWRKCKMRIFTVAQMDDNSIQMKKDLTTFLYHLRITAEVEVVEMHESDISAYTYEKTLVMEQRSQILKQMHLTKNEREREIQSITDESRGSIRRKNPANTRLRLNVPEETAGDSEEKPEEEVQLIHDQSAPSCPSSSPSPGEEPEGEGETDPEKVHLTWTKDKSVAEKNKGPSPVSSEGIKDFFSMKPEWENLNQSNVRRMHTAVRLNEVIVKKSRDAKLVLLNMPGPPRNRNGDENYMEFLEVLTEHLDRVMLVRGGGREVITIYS
Put plainly: FLIPR TI+ flux assay, HEK-293 cells expressing KCC2. The format is cell-based. As to the method:
A multi-tiered high-throughput screening assay was used, leveraging a proprietary library of 1.3 million small molecule compounds from AstraZeneca (Cambridge, UK) to identify chemical entities capable of activating KCC2. A single point concentration of 30 μM was used to identify potassium flux using an established thallium (TI+) influx FLIPR assay as the primary read out in HEK-293 cells overexpressing KCC2 (Cardarelli et al., Nat. Med. 23, 1394-1396 (2017); Conway et al., J Biol Chem 292, 21253-21263 (2017); Lee et al., 2022, supra).
Cell Culture and biotinylation. […]
FLIPR TI Flux assay. HEK-293 cells were washed with HBSS, and then incubated with loading buffer containing TI sensitive fluorescent dye (https://www.moleculardevices.com), 20 μM bumetanide 20 μM ouabain and 2.5 mM probenecid for 1 h at room temperature (RT) under control conditions or with drugs in the dark using a FlexStation 3 microplate reader (Molecular Devices) and imaged […] for 30 min. Stimulus buffer was added containing 5 mM K^+/0.5 mM Tl^+ and cells were imaged every 1.5 over a 190 second time course The initial rate Tl^+ uptake (Relative Fluorescence Units (RFU) per second) was determined following addition of the stimulus buffer as outlined previously (Conway et al., 2017, supra) (Lee et al., 2022, supra). […]

As a reminder, the EC50 is the midpoint of the concentration-response curve. As to `C[C@@H]1CN(c2nc3c(c(Nc4ccc(C5CCCCC5)cc4)n2)COC3)CCO1` [Compound A, (R)—N-(4-cyclohexylphenyl)-2-(2-methylmorpholino)-5,7-dihydrofuro[3,4-d]pyrimidin-4-amine], the EC50 (HEK-293 cells, 1% β-cyclodextrin (BCD) vehicle, read-out: EC50 for KCC2 as measured by TI+ flux) came out at 261 ± 22.2 nM. The “maximum potentiation of KCC2” value (saturating concentration of 3 μM, 1% BCD vehicle) was determined as 90%.

(Values after patent US20250281498A1, “FUSED AMINO PYRIMIDINE COMPOUNDS FOR TREATMENT OF SYNUCLEINOPATHIES AND TDP-43 PROTEINOPATHIES” (Ovid Therapeutics Inc., priority 2024, published 2025).)
